Columns and labels:
[1] = system: PWR1E, RWPE2, PC3, DU145 and LNCaP cells; assay: Microarray gene expression profiling of drug-treated vs mock-treated cell lines (genes modulated by BMS-A); type: cell-based, human
Procedure: (§1) AFFYMETRIX® HG-U133v2 gene chips containing ˜22,000 probe sets were used for gene expression profiling (Affymetrix, Santa Clara, Calif.). Total RNA was isolated from the cells using the RNeasy kits (Qiagen, Valencia, Calif.). The quality of the RNA was assessed using an Agilent 2100 Bioanalyzer (Agilent, Santa Clara, Calif.). Ten μg of total RNA was used for the preparation of biotin-labeled cRNA. Chip hybridization, scanning and data acquisition were performed according to the Expression Analysis Technical Manual provided by the manufacturer.
(§2) The raw expression data were normalized using an RMA algorithm and analyzed in PARTEK® Discovery Suite software (Partek, St Louis, Mo.). Two statistical analyses including 1-way ANOVA for comparison of gene expression between sensitive and resistant cell line groups, and Pearson correlation between gene expression level and log2IC50 values were performed to identify genes whose baseline expression levels correlated with the sensitivity to dasatinib in 16 prostate cell lines (p value<0.05 in both analyses). […] ESTs and gene duplicates were eliminated from the final list. Gene expression profiles of drug treated (100 nM for 2 days) cell lines were compared with those of DMSO control using paired t-test (p value<0.05). Clustering analysis was performed using GeneCluster software and heatmaps were generated with red and green indicating high or low expression respectively.

16 prostate cell lines = assay: IC50 grouping of the panel of prostate cell lines (MTS); type: cell-based; conditions: Homo sapiens
Procedure: Based on the IC50s, cell lines were classified into two groups: 11 cell lines with IC50 lower than 200 nM were designated as sensitive group, and 5 cell lines with IC50 at least greater than 2 μM were considered as resistant group. The separation of these two groups was quite well, and the sensitive/resistant demarcation of 200 nM is within the peak range of BMS-A plasma concentrations in patients treated with the doses near the maximum tolerated dose.
The effect of BMS-A (dasatinib) treatment on cell proliferation was measured using a MTS colorimetric method (Promega, Madison, Wis.). The optimum number of cells to seed in 96-well plates to achieve linearity were determined in pilot experiments. Cells were plated at density of 2000-5000 cells/well into 96-well plates and cultured overnight. Cells were then treated with dasatinib at serially diluted concentrations. Three days later, MTS was added to the medium and quantified on a SPECTRAMAX® photometric plate reader (Molecular Devices, Sunnyvale, Calif.) at 490 nm. The results were plotted against drug concentrations and IC50s were calculated using Prism4 software (GraphPad, San Diego, Calif.). […] The mean±standard deviation (SD) were calculated except for cell lines that were highly resistant to the compound where accurate IC50s were hard to obtain. […]

PC3 xenograft tumors = assay: PC3 xenograft tumor growth; type: in vivo, nu/nu athymic mice; conditions: 15 or 30 mg/kg orally twice a day, 5-day-on 2-day-off, 20 doses
Procedure: FIG. 5. […] Xenograft tumors were established subcutaneously in nu/nu athymic mice. The mice were divided into three groups each with 8 mice after tumors had reached approximately 200 mg. […] Dasatinib was administered orally twice a day on a 5-day-on 2-day-off schedule for 20 doses. The tumor size measurement and blood sampling were performed prior to treatment and weekly for two weeks after treatment initiation. […] Experiments were performed as described in Example 2.
The mice were divided into three groups each with 8 mice after tumors had reached approximately 200 mg. […] Dasatinib was administered orally twice a day on a 5-day-on 2-day-off schedule for 20 doses. The tumor size measurement and blood sampling were performed prior to treatment and weekly for two weeks after treatment initiation. Tumor weight was determined using the following equation: tumor weight=(length*width^2)/2.

PLAU mRNA = assay: Down-regulation of PLAU mRNA expression by dasatinib; type: cell-based, human; conditions: for reduction of PLAU mRNA expression: 100 nM, 48 hours vs DMSO
Text: FIG. 3. PLAU gene expression and regulation by dasatinib analyzed at mRNA and protein levels. (A) Differential baseline expression of PLAU gene between resistant (R, in black) and sensitive (S, in red) cell lines. The X-values are the expression level in log2-scale. The resistant cell line expressing high level of PLAU was WPMY1 and the sensitive cell line expressing low level of PLAU was LNCaP. (B) Down-regulation of PLAU mRNA level by dasatinib-treatment in 5 sensitive cell lines. The cells were treated with 100 nM dasatinib (+D) or DMSO (Ctrl) for 48 hours. The p value was 0.048 in paired t-test, indicating a significant reduction of PLAU mRNA following dasatinib treatment. (C) Correlation between dasatinib-induced PLAU mRNA down-regulation with the sensitivity of cell lines to dasatinib. In addition to those 5 sensitive cells, three dasatinib-resistant cell lines 22Rv, MDAPCa2b, and VCaP were also treated with dasatinib same as in FIG. 3B. The extent of PLAU down-regulation by dasatinib (Y-axis) was negatively correlated with the log2IC50 values (X-axis) of these 8 cell lines. (D) Dose-dependent down-regulation of PLAU mRNA expression in PC3 cells. Cells were treated with or without different concentrations of dasatinib for 4 or 24 hours. The PLAU expression level relative to control was shown in Y-axis. (E) Dose-dependent inhibition of secreted uPA protein in PC3 cells by dasatinib but not by TAXOL®. Cells were treated with different doses of dasatinib, TAXOL® or DMSO for 24 hours. The amount of uPA protein secreted into the culture medium by 50,000 viable cells was assessed by ELISA assay.
The down-regulation of PLAU mRNA expression by dasatinib was observed (FIG. 3B).
as §1, §2

[2] = 100 nM for 2 days vs DMSO control, paired t-test p<0.05, 5 sensitive cell lines

With `Cc1nc(Nc2ncc(C(=O)Nc3c(C)cccc3Cl)s2)cc(N2CCN(CCO)CC2)n1` [BMS-A, N-(2-chloro-6-methylphenyl)-2-[[6-[4-(2-hydroxyethyl)-1-piperazinyl]-2-methyl-4-pyrimidinyl]amino]-5-thiazolecarboxamide] the “Modulated by BMS-A: ANXA3 (annexin A3) expression” value [1, 2] was “Decreased”, the “Modulated by BMS-A: ARNTL2 expression” value [1, 2] was “Decreased” and the “Modulated by BMS-A: AXL expression” value [1, 2] was “Decreased”. For the same molecule, the “Modulated by BMS-A: CST6 (cystatin E/M) expression” value [1, 2] was “Decreased”, the “Modulated by BMS-A: EREG (epiregulin) expression” value [1, 2] was “Decreased” and the “Modulated by BMS-A: FHL2 expression” value [1, 2] was “Decreased”. For the same molecule, the “Modulated by BMS-A: LAMC2 (laminin, gamma 2) expression” value [1, 2] was “Decreased”, the “Modulated by BMS-A: PLAU (plasminogen activator, urokinase) expression” value [1, 2] was “Decreased” and the “Modulated by BMS-A: SCEL (sciellin) expression” value [1, 2] was “Decreased”. The “Modulated by BMS-A: ZBED2 expression” value [1, 2] was “Decreased”, the “Modulated by BMS-A (p < 0.05): AXL expression” value ([1]; gene AXL receptor tyrosine kinase (AXL), probe 202686_s_at, Gene No. 52, expressed in sensitive cell lines) was “decreased” and the “Modulated by BMS-A (p < 0.05): ANXA3 expression” value ([1]; gene annexin A3 (ANXA3), probe 209369_at, Gene No. 8, expressed in sensitive cell lines) was “decreased”. The “Modulated by BMS-A (p < 0.05): ARNTL2 expression” value ([1]; gene aryl hydrocarbon receptor nuclear translocator-like 2 (ARNTL2), probe 220658_s_at, Gene No. 100, expressed in sensitive cell lines) was “decreased”, the “Modulated by BMS-A (p < 0.05): CST6 expression” value ([1]; gene cystatin E/M (CST6), probe 206595_at, Gene No. 15, expressed in sensitive cell lines) was “decreased” and the “Modulated by BMS-A (p < 0.05): EREG expression” value ([1]; gene epiregulin (EREG), probe 205767_at, Gene No. 43, expressed in sensitive cell lines) was “decreased”. The “Modulated by BMS-A (p < 0.05): FHL2 expression” value ([1]; gene four and a half LIM domains 2 (FHL2), probe 202949_s_at, Gene No. 54, expressed in sensitive cell lines) was “decreased”, the “Modulated by BMS-A (p < 0.05): LAMC2 expression” value ([1]; gene laminin, gamma 2 (LAMC2), probe 202267_at, Gene No. 33, expressed in sensitive cell lines) was “decreased” and the “Modulated by BMS-A (p < 0.05): PLAU (uPA) expression” value ([1]; gene plasminogen activator, urokinase (PLAU, also referred to as uPA), probe 205479_s_at, Gene No. 63, expressed in sensitive cell lines) was “decreased”. For the same molecule, the “Modulated by BMS-A (p < 0.05): SCEL expression” value ([1]; gene sciellin (SCEL), probe 206884_s_at, Gene No. 3, expressed in sensitive cell lines) was “decreased”, the IC50 (16 prostate cell lines; 5 cell lines considered as resistant group) was greater than 2000 nM and the IC50 (16 prostate cell lines; 11 cell lines designated as sensitive group) was less than 200 nM. The “PC3 xenograft tumor growth” value (PC3 xenograft tumors) was “inhibited”, the “reduction of PLAU mRNA expression” value (PLAU mRNA; DU145 cells) was “approximately 50%” and the “reduction of PLAU mRNA expression” value (PLAU mRNA; LNCaP cells) was “showed a reduction”. The “reduction of PLAU mRNA expression” value (PLAU mRNA; PC3 cells) was “approximately 50%”, the “reduction of PLAU mRNA level, multiple-dose treatment study” value (PLAU mRNA; PC3 cells, 4 h, all doses vs untreated control) was “minimal” and the “reduction of PLAU mRNA level, multiple-dose treatment study” value (PLAU mRNA; PC3 cells, 24 h, dose-dependent) was “dramatic”. The “reduction of PLAU mRNA expression” value (PLAU mRNA; PWR1E cells (CK5-expressing)) was “relatively mild reduction” and the “reduction of PLAU mRNA expression” value (PLAU mRNA; RWPE2 cells (CK5-expressing)) was “relatively mild reduction”.

Source: patent publication US20100120788A1, “IDENTIFICATION OF POLYNUCLEOTIDES FOR […] OF COMPOUNDS THAT […] WITH AND/OR MODULATE PROTEIN TYROSINE KINASES AND/OR PROTEIN TYROSINE KINASE […] IN PROSTATE CELLS” (Bristol-Myers Squibb Company, priority 2007, published 2010)
